Results reported in patent publication US20220324913A1, “ANTIGENIC NEURON SPECIFIC ENOLASE PEPTIDES FOR DIAGNOSING AND TREATING AUTISM” (THE REGENTS OF THE UNIVERSITY OF CALIFORNIA, priority 2019, published 2022).
“Also recorded” adds a separate entry of the source.

Tested on: maternal autoantibodies (plasma from mothers of ASD and TD children)
Experiment: NSE 15-mer peptide microarray epitope mapping probed with maternal plasma
Assay type: binding, human
Details: for Specific binding: group whose antibodies recognize the sequence; for ASD + N = 19 (number of positive samples) / ASD + N = 8 (number of positive samples): mothers of ASD children; for ASD + N = 19 (number of positive samples) / TD + N = 10 (number of positive samples) / ASD + N = 8 (number of positive samples) / TD + N = 11 (number of positive samples): positive if FI >200; for TD + N = 10 (number of positive samples) / TD + N = 11 (number of positive samples): mothers of TD children

Substance | Specific binding (ELISA positive samples) | ASD + N = 19 (number of positive samples) (ELISA positive samples) | TD + N = 10 (number of positive samples) (ELISA positive samples) | Specific binding (ELISA negative samples) | also measured
280 (GDQLGALYQDFVRDY; listed as Homo sapiens) [compound 280] | ASD | 3 | 0 |  | 
YPVVSIEDPFDQDDW (listed as Homo sapiens) [ES 294] |  |  |  |  | Specific binding (ELISA positive samples, listed as SEQ ID NO:8): recognized by plasma from both sample groups; also recorded: recognized by antibodies in both experimental groups
416 (QLMRIEEELGDEARF; listed as Homo sapiens) [compound 416] | ASD | 3 | 0 |  | 
PVVSIEDPFDQDDWA (listed as Homo sapiens) [ES 295] |  |  |  |  | Specific binding (ELISA positive samples, listed as SEQ ID NO:9): recognized by plasma from both sample groups; also recorded: recognized by antibodies in both experimental groups
279 (TGDQLGALYQDFVRD; listed as Homo sapiens) [compound 279] | ASD | 5 | 0 |  | 
297 (VSIEDPFDQDDWAAW; listed as Homo sapiens) [compound 297] |  | 4 | 1 | ASD and TD | ASD + N = 8 (number of positive samples) (ELISA negative samples): 2; TD + N = 11 (number of positive samples) (ELISA negative samples): 2
281 (DQLGALYQDFVRDYP; listed as Homo sapiens) [compound 281] | ASD | 3 | 0 |  | 
411 (LAKYNQLMRIEEELG; listed as Homo sapiens) [compound 411] | ASD | 3 | 0 |  | 
VSIEDPFDQDDWAAW (listed as Homo sapiens) [ES 297] |  |  |  |  | Specific binding (ELISA positive samples, listed as SEQ ID NO:11): recognized by plasma from both sample groups; also recorded: recognized by antibodies in both experimental groups
218 (GGFAPNILENSEALE; listed as Homo sapiens) [compound 218] | ASD | 3 | 0 |  | 
291 (VRDYPVVSIEDPFDQ; listed as Homo sapiens) [compound 291] |  |  |  | ASD and TD | ASD + N = 8 (number of positive samples) (ELISA negative samples): 4; TD + N = 11 (number of positive samples) (ELISA negative samples): 4
413 (KYNQLMRIEEELGDE; listed as Homo sapiens) [compound 413] | ASD | 3 | 0 |  | 
290 (FVRDYPVVSIEDPFD; listed as Homo sapiens) [compound 290] |  |  |  | ASD and TD | ASD + N = 8 (number of positive samples) (ELISA negative samples): 3; TD + N = 11 (number of positive samples) (ELISA negative samples): 1
DYPVVSIEDPFDQDD (listed as Homo sapiens) [ES 293] |  |  |  |  | Specific binding (ELISA positive samples, listed as SEQ ID NO:7): recognized by plasma from both sample groups; also recorded: recognized by antibodies in both experimental groups
299 (IEDPFDQDDWAAWSK; listed as Homo sapiens) [compound 299] | ASD | 2 | 0 |  | 
409 (ERLAKYNQLMRIEEE; listed as Homo sapiens) [compound 409] | ASD | 7 | 0 |  | 

Substance | Specific binding (ELISA positive samples) | ASD + N = 19 (number of positive samples) (ELISA positive samples) | TD + N = 10 (number of positive samples) (ELISA positive samples) | Specific binding (ELISA negative samples) | also measured
295 (PVVSIEDPFDQDDWA; listed as Homo sapiens) [compound 295] |  | 5 | 2 | ASD and TD | ASD + N = 8 (number of positive samples) (ELISA negative samples): 4; TD + N = 11 (number of positive samples) (ELISA negative samples): 3
VVSIEDPFDQDDWAA (listed as Homo sapiens) [ES 296] |  |  |  |  | Specific binding (ELISA positive samples, listed as SEQ ID NO:10): recognized by plasma from both sample groups; also recorded: recognized by antibodies in both experimental groups
292 (RDYPVVSIEDPFDQD; listed as Homo sapiens) [compound 292] |  |  |  | ASD and TD | ASD + N = 8 (number of positive samples) (ELISA negative samples): 5; TD + N = 11 (number of positive samples) (ELISA negative samples): 2
407 (RSERLAKYNQLMRIE; listed as Homo sapiens) [compound 407] | ASD | 3 | 0 |  | 
252 (DVAASEFYRDGKYDL; listed as Homo sapiens) [compound 252] | ASD | 3 | 0 |  | 
412 (AKYNQLMRIEEELGD; listed as Homo sapiens) [compound 412] | ASD | 3 | 0 |  | 
288 (QDFVRDYPVVSIEDP; listed as Homo sapiens) [compound 288] |  |  |  | ASD | ASD + N = 8 (number of positive samples) (ELISA negative samples): 3; TD + N = 11 (number of positive samples) (ELISA negative samples): 0
289 (DFVRDYPVVSIEDPF; listed as Homo sapiens) [compound 289] | ASD | 3 | 0 |  | 
QDFVRDYPVVSIEDP (listed as Homo sapiens) [ES 288] |  |  |  | ASD-specific | 
294 (YPVVSIEDPFDQDDW; listed as Homo sapiens) [compound 294] |  | 8 | 4 | ASD and TD | ASD + N = 8 (number of positive samples) (ELISA negative samples): 5; TD + N = 11 (number of positive samples) (ELISA negative samples): 7
408 (SERLAKYNQLMRIEE; listed as Homo sapiens) [compound 408] | ASD | 6 | 0 |  | 
298 (SIEDPFDQDDWAAWS; listed as Homo sapiens) [compound 298] | ASD | 4 | 0 |  | 
410 (RLAKYNQLMRIEEEL; listed as Homo sapiens) [compound 410] | ASD | 5 | 0 |  | 
296 (VVSIEDPFDQDDWAA; listed as Homo sapiens) [compound 296] |  | 4 | 1 | ASD and TD | ASD + N = 8 (number of positive samples) (ELISA negative samples): 4; TD + N = 11 (number of positive samples) (ELISA negative samples): 2
293 (DYPVVSIEDPFDQDD; listed as Homo sapiens) [compound 293] |  | 6 | 4 | ASD and TD | ASD + N = 8 (number of positive samples) (ELISA negative samples): 6; TD + N = 11 (number of positive samples) (ELISA negative samples): 7
